Consider 21 compounds from PubChem BioAssay AID330 (DTP/NCI, 2004).

The structures appear in SMILES notation. Several values for one entry are separate records, joined by “and”; a condition that tells them apart may be missing. Equal entries are not always repeated. Inconclusive results and toxic doses are left out.

The assay relates to P388 leukemia ip, CD2F1 mice, survival T/C. Briefly: NCI In Vivo Anticancer Drug Screen. Data for tumor model P388 Leukemia (intraperitoneal) in CD2F1 (CDF1) mice. The conditions noted are these: endpoint: median survival time, higher = longer survival. Summed up: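 Mice carrying the transplanted tumor received test compound or vehicle. Survival was recorded in each group, and the value is the treated-group measurement divided by that of the vehicle-treated control group.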

The mark [1] stands for this setting: dose: 50.0 mg/kg/injection, schedule: Q01DX009 (ip), vehicle: saline.
Setting [2] is: dose: 100.0 mg/kg/injection, schedule: Q01DX009 (ip), vehicle: saline.
[3] abbreviates: dose: 50.0 mg/kg/injection, schedule: Q01DX005 (ip), vehicle: saline with Tween-80.
[4] abbreviates: dose: 100.0 mg/kg/injection, schedule: Q01DX005 (ip), vehicle: saline with Tween-80.
Setting [5] is: dose: 200.0 mg/kg/injection, schedule: Q01DX005 (ip), vehicle: saline with Tween-80.
[6] abbreviates: dose: 60.0 mg/kg/injection, schedule: Q01DX005 (ip), vehicle: Klucel (hydroxypropylcellulose) (HPC).
The mark [7] stands for this setting: dose: 120.0 mg/kg/injection, schedule: Q01DX005 (ip), vehicle: Klucel (hydroxypropylcellulose) (HPC).
Where [8] appears, read: dose: 60.0 mg/kg/injection, schedule: Q01DX005 (ip), vehicle: saline.
[9] abbreviates: dose: 120.0 mg/kg/injection, schedule: Q01DX005 (ip), vehicle: saline.
Setting [10] is: dose: 50.0 mg/kg/injection, schedule: Q01DX009 (ip), vehicle: Klucel (hydroxypropylcellulose) (HPC).
[11] abbreviates: dose: 100.0 mg/kg/injection, schedule: Q01DX009 (ip), vehicle: Klucel (hydroxypropylcellulose) (HPC).
[12] abbreviates: dose: 60.0 mg/kg/injection, schedule: Q01DX005 (ip), vehicle: saline with Tween-80.
Setting [13] is: dose: 120.0 mg/kg/injection, schedule: Q01DX005 (ip), vehicle: saline with Tween-80.
[14] abbreviates: dose: 240.0 mg/kg/injection, schedule: Q01DX005 (ip), vehicle: saline with Tween-80.
[15] abbreviates: dose: 6.25 mg/kg/injection, schedule: Q04DX002 (ip), vehicle: saline.
Where [16] appears, read: dose: 12.5 mg/kg/injection, schedule: Q04DX002 (ip), vehicle: saline.

With `CC(=O)Nc1nc(NC(C)=O)c(N=O)c(NC(C)=O)n1`, the T/C is, setting by setting: (dose: 25.0 mg/kg/injection, schedule: Q01DX009 (ip), vehicle: saline with Tween-80) 103 % of control; (dose: 25.0 mg/kg/injection, schedule: Q01DX009 (ip), vehicle: saline) 108 % of control; (dose: 50.0 mg/kg/injection, schedule: Q01DX009 (ip), vehicle: saline with Tween-80) 103 % of control; under setting [1], 108 % of control and 120 % of control; (dose: 100.0 mg/kg/injection, schedule: Q01DX009 (ip), vehicle: saline with Tween-80) 94 % of control; under setting [2], 112 % of control.

In the case of `CCOP(=O)(OCC)C(N)Cc1c[nH]c2ccccc12` (configuration not stated), the T/C (dose: 50.0 mg/kg/injection, schedule: Q01DX005 (ip), vehicle: saline) is 101 % of control and the T/C (dose: 100.0 mg/kg/injection, schedule: Q01DX005 (ip), vehicle: saline) was 104 % of control.

For `CCOP1(=O)CCCCN1Cc1ccccc1` (configuration not stated), the T/C under setting [1] is 100 % of control and the T/C under setting [2] is 103 % of control.

Regarding `COc1cccc2c1C(=O)c1c(O)c3c(c(O)c1C2=O)C[C@@](O)(/C(C)=N/NC(=O)c1ccccc1)C[C@@H]3OC1CC(N(C)C)C(O)C(C)O1` (some centres not stated), the T/C is 165 % of control (dose: 0.78 mg/kg/injection, schedule: Q01DX009 (ip), vehicle: water); 165 % of control (dose: 1.56 mg/kg/injection, schedule: Q01DX009 (ip), vehicle: water); 183 % of control and 192 % of control (dose: 3.13 mg/kg/injection, schedule: Q01DX009 (ip), vehicle: water); 103 % of control (dose: 12.5 mg/kg/injection, schedule: Q01DX009 (ip), vehicle: water).

With `Cc1cc2c(c(Br)c1O)Oc1c(cc(C)c(O)c1Br)C21OC(=O)c2ccccc21`, the T/C is, setting by setting: under setting [3], 110 % of control; under setting [4], 106 % of control; under setting [5], 105 % of control.

With `Cc1cc(C)c(COCc2cc(C)c(C)cc2C)cc1C`, the T/C (dose: 25.0 mg/kg/injection, schedule: Q01DX009 (ip), vehicle: water) is 86 % of control; the T/C (dose: 100.0 mg/kg/injection, schedule: Q01DX009 (ip), vehicle: water) was 90 % of control; the T/C (dose: 200.0 mg/kg/injection, schedule: Q01DX009 (ip), vehicle: water) is 106 % of control; the T/C (dose: 400.0 mg/kg/injection, schedule: Q01DX009 (ip), vehicle: water) was 104 % of control.

Take `c1ccc(-c2nnc3sc4ccccc4n23)cc1`: the T/C under setting [6] was 105 % of control; the T/C under setting [7] is 96 % of control; the T/C (dose: 240.0 mg/kg/injection, schedule: Q01DX005 (ip), vehicle: Klucel (hydroxypropylcellulose) (HPC)) is 94 % of control.

In the case of `CCC12CCCN3CCC4(c5cccc(O)c5NC4CC1)C32` (configuration not stated), the T/C under setting [8] was 101 % of control; the T/C under setting [9] was 94 % of control; the T/C (dose: 240.0 mg/kg/injection, schedule: Q01DX005 (ip), vehicle: saline) is 101 % of control.

With `Cc1[nH]c2ccc(N(C)C)cc2c(=O)c1CN(Cc1ccccc1)Cc1c(C)[nH]c2ccc(N(C)C)cc2c1=O`, the T/C reads like this: (dose: 7.5 mg/kg/injection, schedule: Q01DX005 (ip), vehicle: Klucel (hydroxypropylcellulose) (HPC)) 94 % of control; (dose: 15.0 mg/kg/injection, schedule: Q01DX005 (ip), vehicle: Klucel (hydroxypropylcellulose) (HPC)) 89 % of control; (dose: 30.0 mg/kg/injection, schedule: Q01DX005 (ip), vehicle: Klucel (hydroxypropylcellulose) (HPC)) 86 % of control.

For `CCN(CC)CC(=O)O[C@]1(CC)C(=O)OCc2c1cc1n(c2=O)Cc2cc3ccccc3nc2-1`, the T/C reads like this: (dose: 0.5 mg/kg/injection, schedule: Q01DX005 (ip), vehicle: water) 110 % of control; (dose: 1.0 mg/kg/injection, schedule: Q01DX005 (ip), vehicle: water) 115 % of control; (dose: 2.0 mg/kg/injection, schedule: Q01DX005 (ip), vehicle: water) 115 % of control; (dose: 8.0 mg/kg/injection, schedule: Q01DX005 (ip), vehicle: water) 161 % of control and 163 % of control.

Turning to `COc1cc(/C=N/NP(=S)(Oc2ccc(C(C)(C)C)cc2)Oc2ccc(C(C)(C)C)cc2)cc(OC)c1O`, the T/C runs as follows: under setting [10], 99 % of control; under setting [11], 99 % of control.

Turning to `CCCCCCCCCCCCCOC(=O)CC(C(=O)OCCCCCCCCCCCCC)S(=O)(=O)O` (configuration not stated), the T/C is, setting by setting: under setting [10], 99 % of control; under setting [11], 95 % of control.

Take `COC(=O)CC1C=CC(OC)[C@@]2(C)C(=O)c3ccccc3C(=O)[C@@H]12` (some centres not stated): the T/C reads like this: under setting [12], 93 % of control; under setting [13], 106 % of control; under setting [14], 101 % of control.

`CCN(CC)Cc1cc(Nc2cc(C)nc3ccc(N(C)C)cc23)ccc1O`: the T/C is 91 % of control (dose: 15.0 mg/kg/injection, schedule: Q01DX005 (ip), vehicle: saline); 100 % of control (dose: 30.0 mg/kg/injection, schedule: Q01DX005 (ip), vehicle: saline); 104 % of control and 110 % of control under setting [8].

On to `Cc1ccc2ccc3ccc(C)nc3c2n1.O=[N+]([O-])O.O=[N+]([O-])O.[Cu]`, for which the T/C was 109 % of control under setting [15] and 113 % of control under setting [16].

For `COc1ccc2c(c1)C(=O)C1(CC2)OC1c1cccnc1` (configuration not stated), the T/C by setting is: (dose: 12.5 mg/kg/injection, schedule: Q01DX009 (ip), vehicle: other) 110 % of control; (dose: 25.0 mg/kg/injection, schedule: Q01DX009 (ip), vehicle: other) 115 % of control; (dose: 50.0 mg/kg/injection, schedule: Q01DX009 (ip), vehicle: other) 100 % of control and 117 % of control; (dose: 100.0 mg/kg/injection, schedule: Q01DX009 (ip), vehicle: other) 115 % of control and 117 % of control; (dose: 200.0 mg/kg/injection, schedule: Q01DX009 (ip), vehicle: other) 94 % of control; (dose: 400.0 mg/kg/injection, schedule: Q01DX009 (ip), vehicle: other) 99 % of control.

As for `O=C1c2ccccc2CC1CN1CCCCC1` (configuration not stated), the T/C is 108 % of control under setting [15]; 100 % of control under setting [16]; 100 % of control (dose: 25.0 mg/kg/injection, schedule: Q04DX002 (ip), vehicle: saline).

On to `CS/N=C(/c1ccc(/C(=N/SC)N(C)C)cc1)N(C)C`, for which the T/C reads like this: under setting [6], 106 % of control; under setting [12], 100 % of control; under setting [7], 106 % of control; under setting [13], 102 % of control; under setting [14], 99 % of control.

As for `c1ccc2c(c1)c1cccc3sc4cccc2c4c31`, the T/C is 99 % of control under setting [3], 96 % of control under setting [4] and 92 % of control under setting [5].

Consider `[O-][Br+2]([O-])O`, for which the T/C is 99 % of control under setting [8] and 99 % of control under setting [9].

For `CN1CCC(OC(=O)c2ccc3ncccc3c2)CC1`, the T/C (dose: 50.0 mg/kg/injection, schedule: Q04DX003 (ip), vehicle: saline) was 100 % of control and the T/C (dose: 100.0 mg/kg/injection, schedule: Q04DX003 (ip), vehicle: saline) was 98 % of control.
